Assay results reported in patent publication US11999715B2, “ASK1 inhibiting agents” (BIOGEN MA INC., priority 2018, dated 2024).

Tests used:
[1] = target: T1, ASK1 T838 auto phosphorylation (Homo sapiens, UniProt Q99683); assay: ASK1 (AUTO PHOS T838) assay, MSD format, in HEK-293T cells transfected with ASK1-V5; assay type: cell-based; conditions: ASK1 T838 auto phosphorylation in HEK-293T cells, 1 hr compound incubation; class symbols
T1 sequence (Q99683 1-1374): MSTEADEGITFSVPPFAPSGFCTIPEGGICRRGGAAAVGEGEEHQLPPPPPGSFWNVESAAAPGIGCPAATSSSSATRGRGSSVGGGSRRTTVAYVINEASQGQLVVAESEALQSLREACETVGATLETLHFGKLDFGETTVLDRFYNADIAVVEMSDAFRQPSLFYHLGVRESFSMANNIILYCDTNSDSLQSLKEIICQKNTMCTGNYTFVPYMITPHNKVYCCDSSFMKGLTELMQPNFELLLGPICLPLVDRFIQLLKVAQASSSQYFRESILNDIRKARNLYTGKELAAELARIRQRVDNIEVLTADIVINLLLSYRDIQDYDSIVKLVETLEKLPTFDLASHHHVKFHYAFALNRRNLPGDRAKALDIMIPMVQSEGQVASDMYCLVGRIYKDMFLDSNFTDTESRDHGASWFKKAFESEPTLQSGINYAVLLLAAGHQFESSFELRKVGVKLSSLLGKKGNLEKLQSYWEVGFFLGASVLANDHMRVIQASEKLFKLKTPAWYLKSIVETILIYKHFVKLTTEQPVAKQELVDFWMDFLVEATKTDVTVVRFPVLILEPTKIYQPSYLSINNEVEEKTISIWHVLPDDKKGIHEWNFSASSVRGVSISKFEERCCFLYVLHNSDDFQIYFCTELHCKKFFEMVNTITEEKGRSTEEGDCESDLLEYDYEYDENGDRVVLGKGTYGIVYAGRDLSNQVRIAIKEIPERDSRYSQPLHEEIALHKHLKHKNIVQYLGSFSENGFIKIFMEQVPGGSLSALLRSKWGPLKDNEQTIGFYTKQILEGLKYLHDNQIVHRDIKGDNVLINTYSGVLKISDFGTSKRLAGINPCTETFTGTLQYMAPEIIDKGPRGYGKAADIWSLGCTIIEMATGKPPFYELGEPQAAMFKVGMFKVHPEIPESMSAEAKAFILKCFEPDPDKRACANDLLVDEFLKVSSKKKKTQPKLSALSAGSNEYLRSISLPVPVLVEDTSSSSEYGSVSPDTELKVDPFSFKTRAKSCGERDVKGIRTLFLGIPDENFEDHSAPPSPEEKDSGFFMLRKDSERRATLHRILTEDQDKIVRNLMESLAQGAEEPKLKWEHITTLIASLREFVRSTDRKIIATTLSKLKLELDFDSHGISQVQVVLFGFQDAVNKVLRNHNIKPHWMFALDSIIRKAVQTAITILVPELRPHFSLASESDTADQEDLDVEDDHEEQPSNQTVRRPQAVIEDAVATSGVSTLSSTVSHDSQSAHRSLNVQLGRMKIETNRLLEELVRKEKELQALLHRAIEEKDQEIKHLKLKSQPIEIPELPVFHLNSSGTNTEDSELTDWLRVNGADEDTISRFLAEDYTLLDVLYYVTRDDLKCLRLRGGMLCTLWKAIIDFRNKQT
Procedure: Example 112: Brief Description of ASK1(AUTO PHOS T838) Assay ASK1 T838 auto phosphorylation was measured in HEK-293T cells using MSD assay format. HEK 293T cells were seeded in 15 cm plates at a density of 18 million cells and 20 mL DMEM with 10% FBS, Pen/Strep media. The plates were incubated at 37° C. overnight. Media on plates was changed to OPTI-MEM, serum free media and cells were transfected with 9 μg of ASK1-V5 tagged full length plasmid using Lipofectamine 2000 (Invitrogen) and the plates were incubated at 37° C. overnight. Cells were trypsinized, counted on Nexcellometer and plated into 96 well tissue culture plates with 100,000 cells/well and 200 μL media. Cells were incubated for 4 hr at 37° C. then ASK1 compounds were added using a HP 300e. Compounds were tested at 20 μM with 3 fold, 10 point dilution points then incubated for 1 hr at 37° C. A lysis buffer (Cell Signaling) was prepared with protease and phosphatase inhibitor and maintained at 4° C. until use. Media from cells was discarded and 120 μL of cold lysis buffer was added to the cells, the plate was shaken 4° C. for 1 hr. Lysate was mixed using Apricot liquid handler; aspirating up and down 16 times at high speed using 50 μL volume. […] Plates were then incubated on a plate shaker overnight at 4° C. Plates were washed 3× with MSD wash buffer and 50 μL of rabbit anti-pASK1 T838 antibody was added to the wells and incubated for 2 hr at room temperature on a plate shaker. Plates were then washed and 50 μL of goat anti-rabbit sulfa-tag (1:500 dilution) was added to wells, and incubated for 1 hr at room temperature on a plate shaker. […] Plates were immediately read on a MSD Instrument Reader where chemoluminescence signal was measured. Data was analyzed using Graph Pad or Genedata, the data was normalized and plotted, % activity versus log of compound concentration. The IC50 values were obtained from a 4 parameter fit. The compounds described herein were tested for in the above cell-based assay.

ASK1/MAP3K5 = target: T2, ASK1/MAP3K5 (Homo sapiens, UniProt Q99683); assay: ASK1/MAP3K5 kinase assay by Reaction Biology Corp. (headed ASK1 TR-FRET Assay); assay type: biochemical; conditions: 20 μM myelin basic protein, 10 μM ATP, class symbols
T2 sequence (Q99683 1-1374): T1 sequence (Q99683 1-1374)
Procedure: Example 111: Brief Description of ASK1 TR-FRET Assay The protein kinase inhibitory activity of the compounds described herein were tested using the ASK1/MAP3K5 assay by Reaction Biology Corp. (Malvern, PA). The assay procedure follows (and is also available on the Reaction Biology Corp. website). Base Reaction Buffer: 20 mM Hepes (pH 7.5), 10 mM MgCl2, 1 mM EGTA, 0.02% Brij35, 0.02 mg/mL BSA, 0.1 mM Na3VO4, 2 mM DTT, 1% DMSO; Substrate: 20 μM of myelin basic protein (MBP) and 10 μM ATP; Protein kinase: ASK1/MAP3K5. Reaction Procedure: • 1. Prepare indicated substrate in freshly prepared Base Reaction Buffer. • 2. Deliver any required cofactors to the substrate solution. • 3. Deliver indicated kinase into the substrate solution and gently mix. • 4. Deliver compounds in DMSO into the kinase reaction mixture by Acoustic; technology (Echo550; nanoliter range), incubate for 20 minutes at room temperature. • 5. Deliver ^33P-ATP (specific activity 10 μCi/μL) into the reaction mixture to initiate the reaction. • 6. Incubate kinase reaction for 2 hours at room temperature. • 7. Reactions are spotted onto P81 ion exchange paper. • 8. Detect kinase activity by filter-binding method.

IC50 [1] [µM]	IC50 (ASK1/MAP3K5) [µM]	SMILES
≤ 1	≤ 0.1	COc1nn(C)cc1C(=O)Nc1cccc(-c2nncn2C2CC2)n1 [Example 18, N-(6-(4-Cyclopropyl-4H-1,2,4-triazol-3-yl)pyridin-2-yl)-3-methoxy-1-methyl-1H-pyrazole-4-carboxamide]
≤ 1	≤ 0.1	COc1nn(C)cc1C(=O)Nc1cccc(-c2nncn2C2CC(F)(F)C2)n1 [Example 19, N-(6-(4-(3,3-Difluorocyclobutyl)-4H-1,2,4-triazol-3-yl)pyridin-2-yl)-3-methoxy-1-methyl-1H-pyrazole-4-carboxamide]
≤ 1	≤ 0.1	COc1nn(C)cc1C(=O)Nc1cccc(-c2nncn2C2CCCC2)n1 [Example 20, N-(6-(4-Cyclopentyl-4H-1,2,4-triazol-3-yl)pyridin-2-yl)-3-methoxy-1-methyl-1H-pyrazole-4-carboxamide]
≤ 1	≤ 0.1	COc1nn(C)cc1C(=O)Nc1cccc(-c2nncn2C(C)(C)C)n1 [Example 21, N-(6-(4-(tert-Butyl)-4H-1,2,4-triazol-3-yl)pyridin-2-yl)-3-methoxy-1-methyl-1H-pyrazole-4-carboxamide]
1 to 10	1 to 10	C[C@H](n1cnnc1-c1cccc(NC(=O)c2cn(C)nc2C(F)F)n1)C(F)(F)F [Example 22, (S)-3-(Difluoromethyl)-1-methyl-N-(6-(4-(1,1,1-trifluoropropan-2-yl)-4H-1,2,4-triazol-3-yl)pyridin-2-yl)-1H-pyrazole-4-carboxamide]
≤ 1	≤ 0.1	Cn1cc(C(=O)Nc2cccc(-c3nncn3C3(C(F)(F)F)CC3)n2)c(C(F)F)n1 [Example 24, 3-(Difluoromethyl)-1-methyl-N-(6-(4-(1-(trifluoromethyl)cyclopropyl)-4H-1,2,4-triazol-3-yl)pyridin-2-yl)-1H-pyrazole-4-carboxamide]
≤ 1	≤ 0.1	COc1nn(C)cc1C(=O)Nc1cccc(-c2nncn2C2(C(F)(F)F)CC2)n1 [Example 25, 3-Methoxy-1-methyl-N-(6-(4-(1-(trifluoromethyl)cyclopropyl)-4H-1,2,4-triazol-3-yl)pyridin-2-yl)-1H-pyrazole-4-carboxamide]

Further lines, the compound ahead of its results:

SMILES	IC50 [1] [µM]	IC50 (ASK1/MAP3K5) [µM]
COc1nn(C)cc1C(=O)Nc1cccc(-c2nncn2[C@@H](C)C(F)(F)F)n1 [Example 12, (S)-3-Methoxy-1-methyl-N-(6-(4-(1,1,1-trifluoropropan-2-yl)-4H-1,2,4-triazol-3-yl)pyridin-2-yl)-1H-pyrazole-4-carboxamide]	≤ 1	≤ 0.1
CCn1cc(C(=O)Nc2cccc(-c3nncn3C(C)C(F)(F)F)n2)c(OC)n1 (centres unmarked) [Example 13, 1-Ethyl-3-methoxy-N-(6-(4-(1,1,1-trifluoropropan-2-yl)-4H-1,2,4-triazol-3-yl)pyridin-2-yl)-1H-pyrazole-4-carboxamide]	≤ 1	≤ 0.1
COCc1nn(C)cc1C(=O)Nc1cccc(-c2nncn2[C@@H](C)C(F)(F)F)n1 [Example 14]	≤ 1	0.1 to 1
CCn1cc(C(=O)Nc2cccc(-c3nncn3[C@@H](C)C(F)(F)F)n2)c(OC)n1 [Example 15, (S)-1-Ethyl-3-methoxy-N-(6-(4-(1,1,1-trifluoropropan-2-yl)-4H-1,2,4-triazol-3-yl)pyridin-2-yl)-1H-pyrazole-4-carboxamide]	≤ 1	≤ 0.1
CCOc1nn(C)cc1C(=O)Nc1cccc(-c2nncn2[C@@H](C)C(F)(F)F)n1 [Example 16, (S)-3-Ethoxy-1-methyl-N-(6-(4-(1,1,1-trifluoropropan-2-yl)-4H-1,2,4-triazol-3-yl)pyridin-2-yl)-1H-pyrazole-4-carboxamide]	≤ 1	≤ 0.1
COc1nn(C)cc1C(=O)Nc1cccc(-c2nncn2C2CCC2)n1 [Example 17, N-(6-(4-Cyclobutyl-4H-1,2,4-triazol-3-yl)pyridin-2-yl)-3-methoxy-1-methyl-1H-pyrazole-4-carboxamide]	≤ 1	≤ 0.1
